# pIC50: −log10 of the molar value. Values joined by “and” are separate entries in the source; they are usually repeats but may differ in a detail not shown here. Equal values may be shown once.
# System: 186277-243-T-J2-PDC complex spheroids, viability
# Test: Anticancer human tumor 186277-243-T-J2-PDC patient-derived colon adenocarcinoma cell line growth inhibition [RAS]
# Details: for viability, T/C: stronger effect = lower value
# Outline: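 Multi-cell-type spheroids: tumor cells plus HUVEC endothelial cells and mesenchymal stem cells. RAS-pathway inhibitors were combined with targeted agents, each dosed in half-log steps down from clinical Cmax, or from 10 microM when Cmax was unknown.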
# 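Further: spheroids exposed to compounds for 7 days before viability read.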
compound,measurement,setting,value
CC1(C)CCC(Nc2ncc(C(F)(F)F)c(-c3c[nH]c4c(P(C)(C)=O)c(C#N)ccc34)n2)CN1 (stereo not drawn),"viability, T/C",compound 0.000949 µM,89.9% [middle of 4 runs]
same,"viability, T/C",compound 0.003 µM,102% and 101% (2×) and 97%
same,"viability, T/C",compound 0.00949 µM,99.2% [middle of 4 runs]
same,"viability, T/C",compound 0.0949 µM,60.8% and 56.4% (2×) and 71.4%
same,"viability, T/C",compound 0.3 µM,63.9% [middle of 4 runs]
same,pIC50,curve of compound,< 6.52 and 6.54 and 6.71
CC(Nc1ccc2c(c1)OCCn1cc(N3C(=O)OCC3C(F)F)nc1-2)C(N)=O (stereo not drawn),"viability, T/C",compound 0.0316 µM,102% (2×) and 76.1% and 98.5%
same,"viability, T/C",compound 0.1 µM,91.8% [middle of 4 runs]
same,"viability, T/C",compound 0.316 µM,69.5% [middle of 4 runs]
same,"viability, T/C",compound 1 µM,51.2% [middle of 4 runs]
same,"viability, T/C",compound 10 µM,34.3% [middle of 4 runs]
CCC(CC)c1cc(NC2CCC(N)C2)n2nccc2n1 (stereo not drawn) + CCn1c(-c2cccnc2C(C)OC)c2c3cc(ccc31)N1CCOC(CC(NC(=O)C(C(C)C)N(C)C(=O)C3(F)CCN(C(=O)C#CC(C)(C)N(C)C)CC3)C(=O)N3CCCC(N3)C(=O)OCC(C)(C)C2)C1,pIC50,"curve of first compound, second compound 0.000949 µM",5.76
same,pIC50,"curve of first compound, second compound 0.003 µM",5.75
same,pIC50,"curve of first compound, second compound 0.00949 µM",5.73
same,pIC50,"curve of first compound, second compound 0.03 µM",5.72
same,pIC50,"curve of first compound, second compound 0.0949 µM",5.81
same,pIC50,"curve of first compound, second compound 0.3 µM",5.92
same,"viability, T/C","second compound 0.000949 µM, first compound 0.0316 µM",105%
same,"viability, T/C","second compound 0.000949 µM, first compound 0.1 µM",91.8%
same,"viability, T/C","second compound 0.000949 µM, first compound 0.316 µM",90.4%
same,"viability, T/C","second compound 0.000949 µM, first compound 1 µM",91.2%
same,"viability, T/C","second compound 0.000949 µM, first compound 3.16 µM",4.89%
same,"viability, T/C","second compound 0.000949 µM, first compound 10 µM",0.44%
same,"viability, T/C","second compound 0.003 µM, first compound 0.0316 µM",96%
same,"viability, T/C","second compound 0.003 µM, first compound 0.1 µM",86.7%
same,"viability, T/C","second compound 0.003 µM, first compound 0.316 µM",98%
same,"viability, T/C","second compound 0.003 µM, first compound 1 µM",101%
same,"viability, T/C","second compound 0.003 µM, first compound 3.16 µM",4.58%
same,"viability, T/C","second compound 0.003 µM, first compound 10 µM",0.37%
same,"viability, T/C","second compound 0.00949 µM, first compound 0.0316 µM",99.4%
same,"viability, T/C","second compound 0.00949 µM, first compound 0.1 µM",87.2%
same,"viability, T/C","second compound 0.00949 µM, first compound 0.316 µM",91.9%
same,"viability, T/C","second compound 0.00949 µM, first compound 1 µM",103%
same,"viability, T/C","second compound 0.00949 µM, first compound 3.16 µM",12.8%
same,"viability, T/C","second compound 0.00949 µM, first compound 10 µM",0.38%
same,"viability, T/C","second compound 0.03 µM, first compound 0.0316 µM",107%
same,"viability, T/C","second compound 0.03 µM, first compound 0.1 µM",107%
same,"viability, T/C","second compound 0.03 µM, first compound 0.316 µM",97.7%
same,"viability, T/C","second compound 0.03 µM, first compound 1 µM",113%
same,"viability, T/C","second compound 0.03 µM, first compound 3.16 µM",4.88%
same,"viability, T/C","second compound 0.03 µM, first compound 10 µM",0.35%
same,"viability, T/C","second compound 0.0949 µM, first compound 0.0316 µM",111%
same,"viability, T/C","second compound 0.0949 µM, first compound 0.1 µM",103%
same,"viability, T/C","second compound 0.0949 µM, first compound 0.316 µM",108%
same,"viability, T/C","second compound 0.0949 µM, first compound 1 µM",77.6%
same,"viability, T/C","second compound 0.0949 µM, first compound 3.16 µM",4.31%
same,"viability, T/C","second compound 0.0949 µM, first compound 10 µM",0.37%
same,"viability, T/C","second compound 0.3 µM, first compound 0.0316 µM",102%
same,"viability, T/C","second compound 0.3 µM, first compound 0.1 µM",108%
same,"viability, T/C","second compound 0.3 µM, first compound 0.316 µM",98.2%
same,"viability, T/C","second compound 0.3 µM, first compound 1 µM",59.5%
same,"viability, T/C","second compound 0.3 µM, first compound 3.16 µM",3.42%
same,"viability, T/C","second compound 0.3 µM, first compound 10 µM",0.42%

# From PubChem BioAssay AID2060908 (Molecular Pharmacology Branch, DTP, NCI, 2025)
